The term % Inhibition denotes the percentage by which the read-out fell short of the control. A lower % Inhibition goes with little suppression.

Data on 20 substances can be found in patent US10517889B2, “Modulators of SMAD7 expression” (Ionis Pharmaceuticals, Inc., priority 2017, dated 2019).

In the data set the test system is human SMAD7 mRNA. Description: Antisense inhibition of human SMAD7 mRNA expression in Hep3B cells by 3-10-3 cEt gapmers, 10,000 nM, electroporation (Example 2). The data set is classed as cell-based. The note with it: approximately 24 hours. The method in brief:
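Percent inhibition of SMAD7 mRNA, relative to untreated cells, after ~24 h exposure of electroporated Hep3B cells to 10,000 nM cEt gapmer; levels by qRT-PCR, corrected for total RNA.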

The mark [1] stands for this setting: Hep3B cells, electroporation with 10,000 nM antisense oligonucleotide, SMAD7 mRNA by RT-PCR (RTS5062), relative to untreated control cells.
Where [2] appears, read: Hep3B cells, electroporation with 10,000 nM antisense oligonucleotide, primer probe set RTS5062, relative to untreated control cells.
Where [3] appears, read: Hep3B cells, 10,000 nM antisense oligonucleotide, electroporation, RT-PCR primer probe set RTS5062, relative to untreated control cells.
Where [4] appears, read: SMAD7 mRNA, Hep3B cells, 10,000 nM antisense oligonucleotide, electroporation, primer probe set RTS5062, relative to untreated control cells.
[5] abbreviates: SMAD7 mRNA, Hep3B cells, electroporation with 10,000 nM antisense oligonucleotide, primer probe set RTS5062, relative to untreated control cells.
Where [6] appears, read: Hep3B cells, electroporation with 10,000 nM antisense oligonucleotide, RTS5062, percent inhibition of SMAD7 mRNA relative to untreated control cells.

Strand notation (5' to 3'): a small letter for the sugar, then the base; units joined by * are phosphorothioate-linked, units joined directly phosphodiester-linked; [ ] holds rarer units or linkages, { } end groups; capitals alone tell only the bases. k = constrained ethyl (cEt); [5mC] = 5-methylcytosine; d = 2'-deoxy (DNA)

“799448 (antisense kG*kT*kA*dA*dA*dA*dT*dG*dA*dA*dT*dG*dA*k[5mC]*kT*kG) [compound 799448]”: the “% Inhibition” value under setting [1] came out at 41%.
The same measure, in the same setting: to “799948 (antisense kA*kT*kA*dT*dT*dG*d[5mC]*d[5mC]*dT*dG*dG*dT*dG*kT*kG*kA) [compound 799948]” belongs 48%.
As to “790613 (k[5mC]*kA*kT*dT*dT*dA*dA*dA*d[5mC]*d[5mC]*dT*dT*dT*kG*kT*kA; antisense) [compound 790613]”, under setting [2], the “% inhibition of SMAD7 mRNA expression” value is reported as 0%.
The same measure, in the same setting: the same measure for “798677 (antisense kA*k[5mC]*kA*d[5mC]*d[5mC]*dA*dT*dG*dA*dA*dG*dA*dA*kG*kT*k[5mC]) [compound 798677]”: 36%.
“799953 (antisense kA*kG*kA*dA*dA*dA*dT*dG*d[5mC]*d[5mC]*d[5mC]*dA*d[5mC]*k[5mC]*kA*kG) [compound 799953]”: the “% Inhibition” value under setting [3] stood at 0%.
Consider “790847 (kT*k[5mC]*kT*dT*dA*d[5mC]*dA*dA*dA*dG*dA*dG*dT*kT*kA*kT; antisense) [compound 790847]”, for which the “% Inhibition” value under setting [3] is recorded as 24%.
Consider “798915 (kT*k[5mC]*kT*dG*dT*d[5mC]*d[5mC]*d[5mC]*d[5mC]*dT*d[5mC]*d[5mC]*dG*k[5mC]*kA*k[5mC]; antisense) [compound 798915]”, for which the “% Inhibition” value under setting [1] was 7%.
On to “800768 (antisense kG*k[5mC]*kG*d[5mC]*dT*d[5mC]*d[5mC]*dG*dT*dG*dG*d[5mC]*dA*kT*kG*k[5mC]) [compound 800768]”, for which the “% Inhibition” value under setting [4] was determined as 18%.
With “799599 (k[5mC]*k[5mC]*kA*dA*d[5mC]*dT*d[5mC]*dT*dG*dA*dA*d[5mC]*dG*kG*kA*kA; antisense) [compound 799599]”, for the setting “Hep3B cells, electroporation, 10,000 nM antisense oligonucleotide, RTS5062, relative to untreated control cells”, the “% inhibition of SMAD7 mRNA expression” value is 12%.
As for “829933 (kG*kT*kG*dA*dT*dA*dA*d[5mC]*dA*d[5mC]*d[5mC]*d[5mC]*dA*kT*kA*kG; antisense) [compound 829933]”, the “% Inhibition” value under setting [5] came out at 38%.
For “798882 (kA*kG*k[5mC]*d[5mC]*d[5mC]*dG*dT*d[5mC]*d[5mC]*dA*d[5mC]*dG*dG*k[5mC]*kT*kG; antisense) [compound 798882]”, the “% Inhibition” value under setting [1] is on record as 0%.
Same read-out and setting: the same measure for “798815 (k[5mC]*kG*k[5mC]*dA*d[5mC]*d[5mC]*dA*dG*dT*dG*dT*dG*dA*k[5mC]*k[5mC]*kG; antisense) [compound 798815]”: 45%.
With “829986 (k[5mC]*kG*kA*dG*dG*d[5mC]*dG*dG*dT*dG*dA*dT*dT*kG*k[5mC]*k[5mC]; antisense) [compound 829986]”, under setting [5], the “% Inhibition” value is 28%.
Regarding “799276 (antisense kG*kG*k[5mC]*dA*dG*d[5mC]*d[5mC]*dA*dG*dT*dT*dA*dA*kT*k[5mC]*kA) [compound 799276]”, the “% Inhibition” value under setting [6] is 29%.
With “830060 (kT*kA*k[5mC]*d[5mC]*dA*d[5mC]*d[5mC]*d[5mC]*d[5mC]*dT*dG*dT*dG*kA*kA*kG; antisense) [compound 830060]”, the “% Inhibition” value under setting [1] stood at 8%.
On to “800769 (antisense kG*k[5mC]*kA*dG*dG*d[5mC]*dG*dA*d[5mC]*dA*dG*d[5mC]*dA*kG*k[5mC]*kA) [compound 800769]”, for which the “% Inhibition” value under setting [4] is 49%.
For the substance “790510 (k[5mC]*k[5mC]*k[5mC]*d[5mC]*dT*dG*dA*dG*dG*dT*dA*dG*dA*kT*k[5mC]*kA; antisense) [compound 790510]”, the “% Inhibition” value under setting [1] is 33%.
In the case of “800039 (kG*kG*kT*dT*dA*dA*dT*dG*dG*d[5mC]*d[5mC]*d[5mC]*dA*kG*k[5mC]*k[5mC]; antisense) [compound 800039]”, the “% Inhibition” value under setting [1] amounted to 27%.
Still for that read-out and setting: the same measure for “799940 (antisense k[5mC]*kT*kT*dT*dG*dA*dG*dG*dA*dG*d[5mC]*dA*dG*kG*kG*kT) [compound 799940]”: 50%.
In the case of “799592 (kG*kG*kA*dA*dT*dT*dA*dG*dT*dA*dA*dA*dT*k[5mC]*kA*kA; antisense) [compound 799592]”, the “% Inhibition” value under setting [6] was determined as 47%.
